Measured values published in ChEMBL document CHEMBL3507680, “University of Dundee, Gates Library screen for HepG2 cell viability”.

Test: Human HepG2 cell viability assay in 384 well format
Assay type: toxicity, cell-based
Parameters: dose 125 nL, time 70.5 hour; concentration not given beside the values
Conditions: HepG2 cells, read-out: Inhibition

SMILES	cytotoxicity at 70.5 h [%]
CC(C)Cc1cc(C(=O)NCc2nnc[nH]2)[nH]n1	-13.4
Cc1cc(C(=O)N2CCCC(n3ccnc3C)C2)c(C)s1 (stereo not drawn)	-11.2
CC(C)c1nc2n(n1)CC(NCc1ccncc1)CC2 (stereo not drawn)	-16.7
CCc1cnc(CN(C)C2CCN(CCc3ccccn3)C2)o1 (stereo not drawn)	10.2
CN(C)C(C)(C)CNC(=O)C(C)(C)c1ccccc1F	4.83
Cc1nc(CN2CCCC(N(C)CCc3cccs3)C2)no1 (stereo not drawn)	8.18
COc1ccc(CNC(=O)C2(C#N)CCCC2)cc1	12.6
CN(CCCC#N)C1CCCN(Cc2noc(C3CC3)n2)C1 (stereo not drawn)	9.15
COCCN1C(=O)CC(N2CCN(c3ccc(OC)cc3)CC2)C1=O (stereo not drawn)	-7.1
COc1ccc(C2CCCCCN2S(=O)(=O)N(C)C)cc1 (stereo not drawn)	-7.96
COc1cc(CN(C)C(=O)Cc2c(C)nn(C)c2C)ccc1OC(F)F	3.07
CN1CCN(CCCNC(=O)c2cc(Cl)c3c(c2)OCO3)CC1	-6.03
O=C(Nc1cccc(CN2CCOC2=O)c1)N1CCSCC1	-10.5
CC(C)NC(=O)c1nnn(-c2cccc(C(F)(F)F)c2)c1C1CC1	10.4
CC1CCCN(CCNC(=O)c2cncnc2C(C)C)C1 (stereo not drawn)	-4.07
CN(C)C(=O)c1cccc(NC(=O)N(CCO)Cc2ccsc2)c1	-4.45
CC(C)CN1CCC(NC(=O)c2ccc(F)cc2I)CC1	11.3
CCCN(CC(=O)NC)C(=O)c1ccc(-c2ccsc2)nc1C	-4.88
COc1ccc(CNC(=O)NC2CCC(O)CC2)c(C(F)(F)F)c1 (stereo not drawn)	-4.62
COc1ccc(CNC(=O)NCC2CCOC2)c(C(F)(F)F)c1 (stereo not drawn)	-2.53
Cc1nc(C)n(CC2CN(CC(=O)Nc3cccnc3)CCO2)n1 (stereo not drawn)	-2.68
O=C(CCc1cscn1)NS(=O)(=O)c1ccc2c(c1)CCC2	8.97

SMILES	cytotoxicity at 70.5 h [%]
CCc1cnc(CN(C)C2CCN(CCS(C)(=O)=O)C2)o1 (stereo not drawn)	-6.45
N#CC1(C(=O)Nc2ccc(OC(F)F)cc2)CCCC1	8
Cc1cc(F)ccc1CNCCn1cccn1	-1.75
COc1cccc(CNCCc2cc(F)cc3c2OCOC3)c1	14.9
COc1ccc(C2CCCN2S(=O)(=O)N(C)CC(C)C)cc1 (stereo not drawn)	-1.91
Cc1ccc(C(=O)N2CCCC2c2nnc3n2CCCCC3)o1 (stereo not drawn)	-7.2
O=C(CN1CCCC1Cn1cncn1)NC(C1CC1)C1CC1 (stereo not drawn)	-4.54
Cc1nc(CN2CCC(N(C)Cc3noc(C(C)C)n3)C2)cs1 (stereo not drawn)	33.4
Cc1nn(C)c(C)c1C1COCCN1C(=O)Cc1cccc(F)c1 (stereo not drawn)	12.5
O=C(CC(F)(F)F)N1CCc2onc(Cn3cccn3)c2C1	-13.4
O=C(Cc1ccccn1)N1C[C@H]2CCC[C@@]2(COc2ccccn2)C1	6.94
O=C1CC(c2ccncc2)C2(CCN(Cc3nccs3)CC2)N1 (stereo not drawn)	-7.32
O=C1CC(c2ccncc2)C2(CCN(Cc3cccnc3)CC2)N1 (stereo not drawn)	-6.24
CNC(=O)[C@H]1C[C@@H]2CCN(Cc3ccc4c(c3)OCO4)C[C@@H]2O1	-7.08
CN(C)C(=O)[C@H]1C[C@@H]2CCN(Cc3ccncc3)C[C@H]2O1	-7.62
O=C(C1CCC1)N1CCc2onc(Cn3cccn3)c2C1	17.9
c1cnc(N2CCO[C@H]3[C@H](OCc4cccnc4)CC[C@@H]32)nc1	13.6
c1ccc(CO[C@H]2CC[C@H]3[C@H]2OCCN3CCN2CCCCC2)nc1	20.6
CCC(CC)NC(=O)c1ccc2nnc(C3CCN(S(C)(=O)=O)C3)n2c1 (stereo not drawn)	6.79
COc1cc(N2C[C@H](OCc3cccnc3)[C@H]3OCCC[C@H]32)ncn1	3.36
O=C(NC1CCCC1)N1CCC2(CC1)CC(Oc1cccnc1)CO2 (stereo not drawn)	26.9
Cc1cccc(N2CCC3(CCCN(C(=O)Cc4cccnc4)C3)C2)n1 (stereo not drawn)	21.3

SMILES	cytotoxicity at 70.5 h [%]
Cc1ccc(N2CCC3(CCCN(C(=O)c4cnccn4)C3)C2)nn1 (stereo not drawn)	1.5
Cc1ccc(N2CCC3(CCN(C(=O)c4ccsc4)CC3)C2)nn1	4.86
CNC(=O)CC1CC2(CCN(S(C)(=O)=O)CC2)c2ccccc21 (stereo not drawn)	-0.621
Cn1cc(CN2CCCC3(CCN3S(C)(=O)=O)C2)cn1 (stereo not drawn)	7.75
CC(=O)c1cnc(NCCc2csc(-c3cnccn3)n2)nc1C	-10.8
CC(C)Cc1ncc2c(n1)CN(c1cc(N3CCCC3)nc(N)n1)C2	1.59
COc1ccnc(N2CCC3(CC2)[C@H](O)C[C@@H]3OCCN(C)C)n1	2.31
O=C(c1ccc(-n2cnnc2)cc1Cl)N1CCCC2(CCNC2)C1 (stereo not drawn)	2.05
O=C(c1ncoc1C1CC1)N1CCN(CCOc2ccccc2)CC1	26
Cc1cc(C)n(CCCN(C)C(=O)C2COc3ccccc3C2)n1 (stereo not drawn)	26.5
COc1ccccc1OC1CN(C(=O)C2CNCC(=O)N2)C1 (stereo not drawn)	-9.64
COc1ccccc1-c1ncc(CN2CCC3(CCNCC3)CC2)cn1	-7.68
Cc1ccc(C)c(OCCN(C)C(=O)CCc2cn[nH]c2)c1	-12.7
Cc1nccn1CCN(C)C(=O)C1CCN(C(=O)C2CCC2)CC1	11.3
Cc1cc(CNc2cncc(C(=O)N(C)C)n2)c2[nH]c(C)c(C)c2c1	27.8
Cc1cc(C(=O)N2C[C@H](CO)C[C@H](CN3CCOCC3)C2)nc(C)n1	-7.67
CC(=O)N1CCc2c(nc(N(C)C)nc2NC(C)Cc2cccs2)C1 (stereo not drawn)	-6.58
COc1nc2c(cc1C(=O)N1CC[C@H](CO)[C@@H](O)C1)CCC2	-16.1
CN(CC1CCOC1)S(=O)(=O)c1cccc(C(=O)N2CCCCCC2)c1 (stereo not drawn)	-14.8
CCc1nc(N)nc(N(C)Cc2nncn2CCOC)c1C	11.8
Cc1ccc(CN(CCN(C)C)C(=O)Nc2cnn(C)c2)s1	-7.54
CCOc1cc2c(cc1CN1CCC3(CC1)CNC(=O)C3)CCC2	23.3

SMILES	cytotoxicity at 70.5 h [%]
CCC[C@H]1CN(S(C)(=O)=O)C[C@@H]1NC(=O)Cc1ccc(OC)cc1	9.24
Cc1nsc(NC(=O)N2CCc3sccc3C2)n1	-7.28
C[C@@H]1CN(C2CCN(c3ccccc3F)CC2)CC[C@]1(C)O	-5.09
CN1CCC(N(CCc2ccccc2)C(=O)c2cc[nH]c2)CC1	-7.32
CC(C)NC(=O)N1CCCC(Cn2cc(-c3ccc(F)cc3)nn2)C1 (stereo not drawn)	23.4
CN(C)C(=O)[C@H]1C[C@H]2[C@H](CCN2Cc2ccc3c(c2)OCO3)O1	-14.7
Cc1ccc(CN2CC[C@H]3C[C@H](C(=O)N(C)C)O[C@H]3C2)cc1	-17.2
O=C(c1ccco1)N1C[C@H]2CCCN(Cc3nccs3)[C@H]2C1	-11.3
O=C(c1cnccn1)N1CCC2(CC1)CCN(Cc1ccccn1)C2=O	19.9
Cc1ccc(C(=O)N2Cc3c(CN(C)C)nn(C)c3C2)cc1C	4.85
Cc1ccc(C(=O)N2Cc3c(CN4CCCCC4)nn(C)c3C2)o1	6.3
O=C1COC2(CCN(C(=O)c3ccoc3)CC2)CN1Cc1ccccn1	-0.827
CN(C)C(=O)N1CCC2(CC1)CCN(Cc1ccccn1)C2=O	25.9
CN(C)C(=O)N1CCC2(CC1)CN(Cc1ccccn1)C(=O)CO2	24.4
O=C1COC2(CCN(C(=O)C3CC=CC3)CC2)CN1Cc1cccnc1	12.1
Cn1nc(CN2CCCCC2)c2c1CN(C(=O)c1cccc(C#N)c1)C2	15.7
Cc1cccc(-c2nnn3c2COC(CNCc2nccs2)C3)c1 (stereo not drawn)	-3.21
Cc1nc(CN2CCCn3c(nc(Cn4cncn4)cc3=O)C2)cs1	22.5
Cc1oncc1C(=O)NCc1cc(=O)n2c(n1)CN(CC1CC1)CCC2	17.8
CN1CC(=O)N(c2ccccc2)CC12CCN(C(=O)CC1CC1)C2 (stereo not drawn)	8.17
Cc1ccc(N2CCC3(CCN(C(=O)c4ccsc4)C3)CC2)nn1	-12.9
Cc1noc(C)c1CN1CCO[C@H]2CN(C3CCOCC3)C[C@H]21	21.3

SMILES	cytotoxicity at 70.5 h [%]
COCCN1CCCn2c(nc(Cn3cncn3)cc2=O)C1	19.3
Cc1ccc(N2CCC3(CCN(C(=O)c4ccnnc4)CC3)CC2)nn1	2.95
O=C(NCc1ccco1)[C@@H]1CCO[C@@H]2CCN(C3CCOCC3)C[C@H]21	4.93
CN1CC(=O)N(c2ccsc2)CC12CCN(C(=O)N1CCCC1)C2 (stereo not drawn)	-7.42
Cc1cc(C(=O)N2CCC3(C2)CN(c2ccsc2)C(=O)CN3C)[nH]n1 (stereo not drawn)	-7.61
O=C(NCc1ccco1)[C@@H]1CCO[C@@H]2CCN(CC3CC3)C[C@@H]21	-6.8
CN1CCC2(CC1)CN(C(=O)c1cnccn1)Cc1ccccc12	-5.07
CN(C)C[C@H]1OC[C@@H]2CCN(S(=O)(=O)c3ccc(F)cc3)C[C@@H]21	-7.32
CN1CC(=O)N(c2ccccc2)CC12CCN(C(=O)c1cccs1)C2 (stereo not drawn)	-5.55
CN1CCOCC2(CCCN(C(=O)Cc3ccncc3)C2)C1 (stereo not drawn)	-11.6
CCOCC1CN(CC2CC2)Cc2nn(C)cc21 (stereo not drawn)	-4.39
Cc1cccc(CN2C[C@@H]3COC[C@]3(CNC(=O)c3ccno3)C2)n1	7.45
Cn1nnc2c1C(COCc1cccnc1)CN(Cc1ccoc1)C2 (stereo not drawn)	-16.5
Cc1nc(CO[C@H]2CN(Cc3ccccn3)[C@@H]3CCCO[C@H]23)cs1	6.92
Cc1nc(CN2CCO[C@H]3[C@@H](OCc4cccnc4)CC[C@@H]32)cs1	4.04
Cc1noc(C)c1CN1CCO[C@H]2CN(Cc3nccn3C)C[C@H]21	0.477
c1cnc(N2CCC3(CCN(CC4CCCC4)CC3)C2)nc1	-1.07
Cc1noc(C)c1CN1CCO[C@H]2CN(Cc3cnn(C)c3)C[C@H]21	-4.66
COc1ncccc1C(=O)N1CC[C@]2(C[C@@H](Oc3cccnc3)CO2)C1	25.3
Cc1ccc(C(=O)N2CCN3C[C@H](Oc4cccnc4)C[C@H]3C2)cn1	4.6
